Counter-ions that a name gives are not always drawn.

Series [1] has as its system RAW264.7 immortalized murine macrophages. Briefly: TNFα secretion assay (LPS-induced, ELISA). Format: cell-based. Conditions: RAW264.7 cells, 4 hrs. The method, then:
The TNFα assay quantifies secreted TNFα from RAW264.7 immortalized murine macrophages as an indicator of inflammation. The cells were concurrently treated with LPS (as an inducer of inflammation) and a titration of test molecules or control compounds for 4 hrs. After the incubation period, the media was harvested and assayed via an ELISA assay. ODs of experimental samples are fit to those of a standard curve to extrapolate the TNFα concentration. IC50 values were calculated by fitting a curve to experimental values with the controls as the top and bottom limits of the curve. Selected compounds provided herein were subjected to this assay.

In series [2] the target is ROCK2 (Homo sapiens (Human), UniProt O75116). As to the kind of experiment: Kinase assay ROCK2. The class given is biochemical. Conditions: HCl salt. As to the method: (§1) Inhibition of various kinases was assayed.
Series [3] has as its target ROCK1 (Homo sapiens (Human), UniProt Q13464). As to the kind of experiment: Kinase assay ROCK1. Format: biochemical. The note with it: HCl salt. The method, then:
as §1

In series [4] the target is PKA (Homo sapiens, UniProt P17612). As to the kind of experiment: Kinase assay PKA. Format: biochemical. Conditions: HCl salt. As to the method:
as §1

The target in series [5] is JAK1 (Homo sapiens (Human), UniProt P23458). Briefly: Kinase assay JAK1. Format: biochemical. Conditions: HCl salt. The method, then: as §1
Series [6] concerns the target JAK3 (Homo sapiens (Human), UniProt P52333). Briefly: Kinase assay JAK3. The class given is biochemical. Conditions: HCl salt. The method, then: as §1
Series [7] has as its target TYK2 (Homo sapiens (Human), UniProt P29597). Briefly: Kinase assay TYK2. The class given is biochemical. The note with it: HCl salt. The method, then:
as §1

In series [8] the target is IKKb (Homo sapiens (Human), UniProt O14920). As to the kind of experiment: Kinase assay IKKb. The class given is biochemical. The note with it: HCl salt. As to the method: as §1
Series [9] deals with PKCh (Homo sapiens (Human), UniProt P24723). As to the kind of experiment: Kinase assay PKCh. Conditions: HCl salt. The class given is biochemical. The method, then: as §1
Series [10] concerns the target PKCd (Homo sapiens (Human), UniProt Q05655). Briefly: Kinase assay PKCd. The class given is biochemical. Conditions: HCl salt. As to the method:
as §1

The target in series [11] is PKCe (Homo sapiens (Human), UniProt Q02156). Briefly: Kinase assay PKCe. The class given is biochemical. The note with it: HCl salt. The method, then:
as §1

Series [12] addresses AKT1 (Homo sapiens (Human), UniProt P31749). Briefly: Kinase assay AKT1. Format: biochemical. Conditions: HCl salt. The method, then: as §1
The test system of series [13] is PTM. Briefly: PTM assay. Format: cell-based. The note with it: HCl salt. The method, then:
as §1

Series [14] concerns NFkB. As to the kind of experiment: NFkB assay. Format: cell-based. Conditions: HCl salt. The method, then: as §1
The test system of series [15] is HTM. As to the kind of experiment: HTM assay. Format: cell-based. The note with it: HCl salt. As to the method: as §1
Series [16] concerns the target JAK2 (Homo sapiens (Human), UniProt O60674). Briefly: Kinase assay JAK2. Format: biochemical. The note with it: HCl salt.
Series [17] in a line: in vitro. Format: cell-based.

AKT1, sequence (P31749 whole entry, species assumed): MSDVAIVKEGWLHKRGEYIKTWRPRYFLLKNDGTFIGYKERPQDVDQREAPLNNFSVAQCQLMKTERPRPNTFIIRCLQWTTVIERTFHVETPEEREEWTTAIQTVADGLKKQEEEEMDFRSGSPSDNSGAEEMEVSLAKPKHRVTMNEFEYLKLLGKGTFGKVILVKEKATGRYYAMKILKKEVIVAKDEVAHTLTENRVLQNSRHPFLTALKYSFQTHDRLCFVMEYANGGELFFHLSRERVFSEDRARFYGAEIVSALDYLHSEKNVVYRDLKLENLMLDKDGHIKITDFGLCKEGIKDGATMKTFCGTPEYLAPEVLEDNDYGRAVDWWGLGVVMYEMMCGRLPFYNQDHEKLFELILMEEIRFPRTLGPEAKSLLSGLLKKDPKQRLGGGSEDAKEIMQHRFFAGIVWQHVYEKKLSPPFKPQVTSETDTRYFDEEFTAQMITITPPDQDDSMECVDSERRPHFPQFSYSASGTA
ROCK1, sequence (Q13464 whole entry, species assumed): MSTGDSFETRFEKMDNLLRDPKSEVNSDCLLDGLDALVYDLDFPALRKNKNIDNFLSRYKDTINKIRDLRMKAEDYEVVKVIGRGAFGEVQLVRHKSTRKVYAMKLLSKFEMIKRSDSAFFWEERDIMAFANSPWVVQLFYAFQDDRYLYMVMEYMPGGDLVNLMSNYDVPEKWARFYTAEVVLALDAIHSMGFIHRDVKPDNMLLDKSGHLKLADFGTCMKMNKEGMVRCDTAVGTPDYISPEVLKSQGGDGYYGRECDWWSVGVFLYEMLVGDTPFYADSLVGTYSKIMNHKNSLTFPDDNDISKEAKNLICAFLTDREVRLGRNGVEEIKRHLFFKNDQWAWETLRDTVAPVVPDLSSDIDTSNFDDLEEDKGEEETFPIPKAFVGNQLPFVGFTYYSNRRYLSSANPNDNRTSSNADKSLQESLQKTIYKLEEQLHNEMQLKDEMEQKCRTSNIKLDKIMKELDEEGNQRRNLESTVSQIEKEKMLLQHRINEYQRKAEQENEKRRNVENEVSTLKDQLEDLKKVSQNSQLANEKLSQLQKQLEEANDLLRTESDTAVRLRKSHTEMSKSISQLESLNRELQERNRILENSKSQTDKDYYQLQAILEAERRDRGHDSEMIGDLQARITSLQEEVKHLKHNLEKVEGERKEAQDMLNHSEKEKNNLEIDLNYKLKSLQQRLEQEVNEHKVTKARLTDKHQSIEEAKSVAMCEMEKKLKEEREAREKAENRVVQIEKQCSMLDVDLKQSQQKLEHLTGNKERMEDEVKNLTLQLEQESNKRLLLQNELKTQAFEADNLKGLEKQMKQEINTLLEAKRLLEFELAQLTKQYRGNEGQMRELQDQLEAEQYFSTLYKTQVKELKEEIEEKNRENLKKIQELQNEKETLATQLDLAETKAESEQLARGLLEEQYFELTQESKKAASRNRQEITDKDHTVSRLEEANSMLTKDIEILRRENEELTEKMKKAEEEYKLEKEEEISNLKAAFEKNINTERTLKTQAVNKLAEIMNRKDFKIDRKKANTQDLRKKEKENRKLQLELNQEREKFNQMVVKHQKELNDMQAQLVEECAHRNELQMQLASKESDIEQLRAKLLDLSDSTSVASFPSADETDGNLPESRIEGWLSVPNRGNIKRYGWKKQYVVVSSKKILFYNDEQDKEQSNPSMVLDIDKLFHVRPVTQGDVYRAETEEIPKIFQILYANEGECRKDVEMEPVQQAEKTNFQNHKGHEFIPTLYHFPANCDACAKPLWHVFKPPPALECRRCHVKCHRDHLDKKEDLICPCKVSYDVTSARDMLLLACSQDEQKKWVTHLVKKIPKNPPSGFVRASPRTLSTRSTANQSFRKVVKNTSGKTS
TYK2, sequence (P29597 whole entry, species assumed): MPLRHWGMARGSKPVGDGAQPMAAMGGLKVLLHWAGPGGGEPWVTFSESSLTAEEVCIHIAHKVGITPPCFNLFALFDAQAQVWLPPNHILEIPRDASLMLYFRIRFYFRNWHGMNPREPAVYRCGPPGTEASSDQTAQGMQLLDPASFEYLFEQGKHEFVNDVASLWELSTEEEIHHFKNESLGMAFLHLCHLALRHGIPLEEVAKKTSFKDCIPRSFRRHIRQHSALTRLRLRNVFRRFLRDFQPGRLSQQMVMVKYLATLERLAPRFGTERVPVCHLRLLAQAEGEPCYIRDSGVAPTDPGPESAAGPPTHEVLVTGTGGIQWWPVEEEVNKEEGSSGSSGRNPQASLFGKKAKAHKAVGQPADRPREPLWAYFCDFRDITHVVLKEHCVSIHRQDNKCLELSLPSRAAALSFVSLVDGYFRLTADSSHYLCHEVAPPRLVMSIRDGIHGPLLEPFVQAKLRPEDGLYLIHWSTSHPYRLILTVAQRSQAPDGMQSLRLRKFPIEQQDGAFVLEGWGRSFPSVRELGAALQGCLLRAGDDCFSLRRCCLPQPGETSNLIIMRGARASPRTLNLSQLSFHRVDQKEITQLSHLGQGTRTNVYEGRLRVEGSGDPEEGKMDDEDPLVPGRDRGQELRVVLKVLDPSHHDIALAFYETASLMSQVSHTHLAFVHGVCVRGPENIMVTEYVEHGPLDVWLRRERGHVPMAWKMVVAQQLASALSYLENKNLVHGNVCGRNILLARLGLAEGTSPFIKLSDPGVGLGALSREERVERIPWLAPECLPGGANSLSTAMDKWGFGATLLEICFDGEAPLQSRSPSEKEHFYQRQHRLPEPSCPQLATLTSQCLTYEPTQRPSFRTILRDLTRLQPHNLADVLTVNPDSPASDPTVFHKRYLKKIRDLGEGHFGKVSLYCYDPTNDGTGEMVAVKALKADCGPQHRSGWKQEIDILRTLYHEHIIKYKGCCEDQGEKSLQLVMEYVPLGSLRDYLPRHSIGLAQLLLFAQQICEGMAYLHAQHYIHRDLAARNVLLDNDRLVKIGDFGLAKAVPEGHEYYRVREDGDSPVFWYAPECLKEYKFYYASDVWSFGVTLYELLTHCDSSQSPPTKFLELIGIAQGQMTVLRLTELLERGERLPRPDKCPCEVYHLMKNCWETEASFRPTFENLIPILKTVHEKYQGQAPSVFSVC
IKKb, sequence (O14920 whole entry, species assumed): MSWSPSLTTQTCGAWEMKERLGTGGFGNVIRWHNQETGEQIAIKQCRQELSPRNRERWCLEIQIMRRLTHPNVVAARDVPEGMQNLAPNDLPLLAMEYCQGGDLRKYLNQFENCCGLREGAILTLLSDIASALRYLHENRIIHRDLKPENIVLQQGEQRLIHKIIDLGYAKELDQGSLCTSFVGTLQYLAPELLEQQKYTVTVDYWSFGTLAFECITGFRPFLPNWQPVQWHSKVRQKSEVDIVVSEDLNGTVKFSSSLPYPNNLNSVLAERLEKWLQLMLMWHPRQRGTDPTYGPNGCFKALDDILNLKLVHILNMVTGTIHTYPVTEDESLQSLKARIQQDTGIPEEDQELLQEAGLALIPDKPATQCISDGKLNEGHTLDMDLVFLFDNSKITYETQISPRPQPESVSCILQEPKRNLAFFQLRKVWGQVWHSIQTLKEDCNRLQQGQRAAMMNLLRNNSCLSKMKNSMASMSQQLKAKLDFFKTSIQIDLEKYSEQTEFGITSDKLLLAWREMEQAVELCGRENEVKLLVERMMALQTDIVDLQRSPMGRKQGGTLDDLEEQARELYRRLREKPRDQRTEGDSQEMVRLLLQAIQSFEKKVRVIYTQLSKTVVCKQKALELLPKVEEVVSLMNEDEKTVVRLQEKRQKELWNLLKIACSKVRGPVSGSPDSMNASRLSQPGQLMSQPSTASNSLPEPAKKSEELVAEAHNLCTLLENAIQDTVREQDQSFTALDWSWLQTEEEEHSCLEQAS
PKCh, sequence (P24723 whole entry): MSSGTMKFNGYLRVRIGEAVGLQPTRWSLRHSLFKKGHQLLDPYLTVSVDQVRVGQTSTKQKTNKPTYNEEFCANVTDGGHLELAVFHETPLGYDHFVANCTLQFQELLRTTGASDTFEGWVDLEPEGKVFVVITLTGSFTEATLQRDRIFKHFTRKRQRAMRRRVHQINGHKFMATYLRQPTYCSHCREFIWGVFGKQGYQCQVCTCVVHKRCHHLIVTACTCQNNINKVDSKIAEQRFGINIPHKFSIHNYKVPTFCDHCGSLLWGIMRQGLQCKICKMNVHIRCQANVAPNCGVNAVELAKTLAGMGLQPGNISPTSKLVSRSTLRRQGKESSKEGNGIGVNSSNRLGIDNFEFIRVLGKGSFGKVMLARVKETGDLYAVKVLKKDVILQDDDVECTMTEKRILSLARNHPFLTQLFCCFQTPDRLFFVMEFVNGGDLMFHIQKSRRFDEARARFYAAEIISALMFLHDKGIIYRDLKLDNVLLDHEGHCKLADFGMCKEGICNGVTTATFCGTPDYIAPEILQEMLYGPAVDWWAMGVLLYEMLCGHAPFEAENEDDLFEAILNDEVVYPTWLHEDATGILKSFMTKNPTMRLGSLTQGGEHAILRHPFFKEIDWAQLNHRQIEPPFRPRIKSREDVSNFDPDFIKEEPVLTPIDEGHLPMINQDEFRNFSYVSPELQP

For `C[C@@H]1C[C@H]2[C@@H]3CCC4=CC(=O)C=C[C@]4(C)[C@@]3(F)[C@@H](O)C[C@]2(C)[C@@]1(O)C(=O)COC(=O)c1cccc([C@@H]2C[C@H]2C(=O)Nc2ccc3cnccc3c2F)c1` [Example 91], the IC50 in series [1] stood at 102 nM.
On to `C[C@]12C=CC(=O)C=C1CC[C@@H]1[C@@H]2[C@@H](O)C[C@@]2(C)[C@H]1CC[C@]2(O)C(=O)COC(=O)C1CC1C(=O)OCc1ccc([C@@H](CN)C(=O)Nc2ccc3cnccc3c2)cc1` (stereo partly shown) [Example 19], for which the IC50 in series [2] is 27 nM; in series [3], 58 nM; in series [4], 332 nM; in series [5] it was 9570 nM; in series [6], 2570 nM; in series [7], 50000 nM. Moreover, the IC50 in [8] amounted to 50000 nM; in [9], 436 nM; in series [10], 589 nM; in series [11], 4160 nM; in series [12], 2540 nM; in series [13], 706 nM. In series [14], the IC50 amounted to 10000 nM.
For the compound `CC(C)(C)OC(=O)NC[C@@H](C(=O)Nc1ccc2cnccc2c1)c1ccc(COC(=O)CCC(=O)OCC(=O)[C@@]23OC(C)(C)O[C@@H]2C[C@H]2[C@@H]4CCC5=CC(=O)C=C[C@]5(C)[C@@]4(F)[C@@H](O)C[C@@]23C)cc1` [Example 29], in series [1] (Mus musculus), inhibition was half-maximal at 71 nM (IC50).
Still for that read-out and setting: for `CC(C)(C)OC(=O)NC[C@@H](C(=O)Nc1ccc2cnccc2c1)c1ccc(COC(=O)CCC(=O)OCC(=O)[C@@]2(O)CC[C@H]3[C@@H]4CCC5=CC(=O)C=C[C@]5(C)[C@H]4[C@@H](O)C[C@@]32C)cc1` [Example 14] the value was 620 nM; for `CN(C)C(C(=O)Nc1ccc2cnccc2c1)c1ccc(COC(=O)CCC(=O)OCC(=O)[C@@]23OC(C)(C)O[C@@H]2C[C@H]2[C@@H]4C[C@H](F)C5=CC(=O)C=C[C@]5(C)[C@@]4(F)[C@@H](O)C[C@@]23C)cc1` (stereo partly shown) [Example 23], 4.5 nM.
Still for that read-out and setting: for `C[C@@H]1C[C@H]2[C@@H]3CCC4=CC(=O)C=C[C@]4(C)[C@@]3(F)[C@@H](O)C[C@]2(C)[C@@]1(O)C(=O)COC(=O)CCC(=O)OCc1ccc(C(CCN)C(=O)Nc2ccc3cnccc3c2)cc1` (stereo partly shown) [Example 12] the value was 90.5 nM; for `CN(C)C(C(=O)Nc1ccc2cnccc2c1)c1ccc(COC(=O)CCC(=O)OCC(=O)[C@@]23OC(C)(C)O[C@@H]2C[C@H]2[C@@H]4CCC5=CC(=O)C=C[C@]5(C)[C@@]4(F)[C@@H](O)C[C@@]23C)cc1` (stereo partly shown) [Example 28], 15.5 nM.
With `CC1(C)O[C@@H]2C[C@H]3[C@@H]4C[C@H](F)C5=CC(=O)C=C[C@]5(C)[C@@]4(F)[C@@H](O)C[C@]3(C)[C@]2(C(=O)COC(=O)CCC(=O)OCc2ccc([C@@H](CN)C(=O)Nc3ccc4cnccc4c3)cc2)O1` [Example 40], the IC50 was 13 nM in series [2]; 19 nM in series [3]; 71 nM in series [4]; 50000 nM in series [5]; 17700 nM in series [6]; 50000 nM in series [7]. Further, the half-inhibitory concentration (IC50) in [8] was determined as 32900 nM; in series [9], 190 nM; in [10] it was 152 nM; in series [11], 244 nM; in [12], 523 nM; in [13] it was 217 nM. Also, the results for the IC50 in series [15] and in series [14] were 11 nM and 28 nM, respectively.
For the compound `CC(C)(C)OC(=O)NCC(C(=O)Nc1ccc2cnccc2c1)c1ccc(CCOC(=O)CCC(=O)OCC(=O)[C@@]23OC(C)(C)O[C@@H]2C[C@H]2[C@@H]4C[C@H](F)C5=CC(=O)C=C[C@]5(C)[C@@]4(F)[C@@H](O)C[C@@]23C)cc1` (stereo partly shown) [Example 31], the IC50 in [1] (Mus musculus) was found to be 5460 nM.
With `C[C@@H]1C[C@H]2[C@@H]3CCC4=CC(=O)C=C[C@]4(C)[C@@]3(F)[C@@H](O)C[C@]2(C)[C@@]1(O)C(=O)COC(=O)C[C@H](N)C(=O)OCc1ccc([C@@H](CN)C(=O)Nc2ccc3cnccc3c2)cc1` [Example 83, 1-(4-((S)-3-amino-1-(isoquinolin-6-ylamino)-1-oxopropan-2-yl)benzyl) 4-(2-((8S,9R,10S,11S,13S,14S,16R,17R)-9-fluoro-11,17-dihydroxy-10,13,16-trimethyl-3-oxo-6,7,8,9,10,11,12,13,14,15,16,17-dodecahydro-3H-cyclopenta[a]phenanthren-17-yl)-2-oxoethyl) L-aspartate trihydrochloride], the IC50 in [2] was 9 nM; in series [3] it was 11 nM; in series [4], 29 nM; in series [5], 34700 nM; in series [16] it was 22000 nM; in series [6], 7730 nM. Further, the IC50 came out at 50000 nM in series [7]; 19200 nM in series [8]; 51 nM in series [9]; 56 nM in series [10]; 154 nM in series [11]; 95 nM in series [12]. Also, the IC50 was determined as 43 nM in series [13], 25 nM in series [15], 100000 nM in series [17] and 55 nM in series [14].
Regarding `C[C@@H]1C[C@H]2[C@@H]3CCC4=CC(=O)C=C[C@]4(C)[C@@]3(F)[C@@H](O)C[C@]2(C)[C@@]1(O)C(=O)COC(=O)C1CC1C(=O)OCc1ccc([C@@H](CN)C(=O)Nc2ccc3cnccc3c2)cc1` (stereo partly shown) [Example 27], the IC50 in series [2] amounted to 13 nM; in series [3] it was 29 nM; in series [4], 317 nM; in series [5] it was 50000 nM; in series [16] it was 41700 nM; in series [6] it was 11600 nM. The IC50 in [7] worked out at 50000 nM; in [8], 46800 nM; in [9], 331 nM; in [10], 509 nM; in [11], 3460 nM; in series [12], 2640 nM. Further, the IC50 in series [13] turned out to be 145 nM; in [15], 6 nM; in [17], 100000 nM; in series [14] it was 1790 nM.
In [1] (Mus musculus), `C[C@@H]1C[C@H]2[C@@H]3CCC4=CC(=O)C=C[C@]4(C)[C@@]3(F)[C@@H](O)C[C@]2(C)[C@@]1(O)C(=O)COC(=O)CCC(=O)OCc1ccc(C(CNC(=O)OC(C)(C)C)C(=O)Nc2ccc3cnccc3c2)cc1` (stereo partly drawn) [Example 4, 4-(3-((tert-butoxycarbonyl)amino)-1-(isoquinolin-6-ylamino)-1-oxopropan-2-yl)benzyl (2-((8S,9R,10S,11S,13S,14S,16R,17R)-9-fluoro-11,17-dihydroxy-10,13,16-trimethyl-3-oxo-6,7,8,9,10,11,12,13,14,15,16,17-dodecahydro-3H-cyclopenta[a]phenanthren-17-yl)-2-oxoethyl) succinate] registered an IC50 of 230 nM.
On the same count and under the same terms, then `C[C@@H]1C[C@H]2[C@@H]3CCC4=CC(=O)C=C[C@]4(C)[C@@]3(F)[C@@H](O)C[C@]2(C)[C@@]1(O)C(=O)COC(=O)CCC(=O)OCc1ccc(C(CCNC(=O)OC(C)(C)C)C(=O)Nc2ccc3cnccc3c2)cc1` (stereo partly shown) [Example 11], with 429 nM; and `CN(C)C(C(=O)Nc1ccc2cnccc2c1)c1ccc(COC(=O)CCC(=O)OCC(=O)[C@@]2(O)CC[C@H]3[C@@H]4CCC5=CC(=O)C=C[C@]5(C)[C@H]4[C@@H](O)C[C@@]32C)cc1` (stereo partly shown) [Example 21], with 1650 nM; and `C[C@@H]1C[C@H]2[C@@H]3CCC4=CC(=O)C=C[C@]4(C)[C@@]3(F)[C@@H](O)C[C@]2(C)[C@@]1(O)C(=O)COC(=O)C1CC1C(=O)OCCc1ccc(C(CN)C(=O)Nc2ccc3cnccc3c2)cc1` (stereo partly shown) [Example 37], with 3100 nM.
Still for that read-out and setting: then `C[C@@H]1C[C@H]2[C@@H]3CCC4=CC(=O)C=C[C@]4(C)[C@@]3(F)[C@@H](O)C[C@]2(C)[C@@]1(O)C(=O)COC(=O)CCC(=O)OCCc1ccc(C(CN)C(=O)Nc2ccc3cnccc3c2)cc1` (stereo partly shown) [Example 26], with 227 nM; and `C[C@@H]1C[C@H]2[C@@H]3CCC4=CC(=O)C=C[C@]4(C)[C@@]3(F)[C@@H](O)C[C@]2(C)[C@@]1(O)C(=O)COC(=O)CCC(=O)OCc1ccc(C(C(=O)Nc2ccc3cnccc3c2)N(C)C)cc1` (stereo partly shown) [Example 20], with 144 nM; and `C[C@@H]1C[C@H]2[C@@H]3CCC4=CC(=O)C=C[C@]4(C)[C@@]3(F)[C@@H](O)C[C@]2(C)[C@@]1(O)C(=O)COC(=O)c1cccc([C@@H]2C[C@H]2C(=O)Nc2ccc3cnccc3c2)c1` [Example 90, 2-((8S,9R,10S,11S,13S,14S,16R,17R)-9-fluoro-11,17-dihydroxy-10,13,16-trimethyl-3-oxo-6,7,8,9,10,11,12,13,14,15,16,17-dodecahydro-3H-cyclopenta[a]phenanthren-17-yl)-2-oxoethyl 3-((1R,2R)-2-(isoquinolin-6-ylcarbamoyl)cyclopropyl)benzoate], with 300 nM.

The term IC50 denotes the point on the concentration scale where inhibition reaches its midpoint.

Values taken from patent US11059789B2, “Isoquinoline-steroid conjugates and uses thereof” (priority 2018, dated 2021).
